# In patent US4835155A, “Process for protection of brain cells” (Nippon Chemiphar Co., Ltd., priority 1986, dated 1989):
# Structures can show the parent of a compound that is named as a salt.
# Assays:
# [1] = tested on: brain cells (delayed neuronal damage); settings: Kirino et al., Progress in Brain Research, vol. 63: 39-58 (1985); cited from earlier work
# [2] = pentobarbital acts nonselectively; cited from earlier work
# [3] = Acute toxicity, oral, observed for seven days; settings: in vivo, ddN male mouse about 20 g
Compound,Effect of protection of brain cells / suppression of delayed neuronal damage [1],Action on central nervous system [2],LD50 at 168 h [3] [mg/kg]
CCCC(C)C1(CC)C(=O)NC(=O)NC1=O (stereo not shown) [pentobarbital],markedly suppress the above-mentioned delayed neuronal damage,the action of central nervous system is also strongly subsided,–
"COc1cc(C(O)CN2CCN(C(c3ccccc3)c3ccccc3)CC2)cc(OC)c1OC (stereo not shown) [B, 2(4-diphenylmethylpiperazinyl)-1-(3,4,5-trimethoxyphenyl)ethanol monohydrochloride]",–,–,> 2000
"Oc1ccc(C(O)CN2CCN(C(c3ccccc3)c3ccccc3)CC2)cc1 (stereo not shown) [C, 2(4-diphenylmethylpiperazinyl)-1-(4-hydroxyphenyl)ethanol monohydrochloride]",–,–,> 2000
